# Assay results published in US20260345574A1, “POTENT AND SELECTIVE IRREVERSIBLE INHIBITORS OF IRAK1” (Dana-Farber Cancer Institute, Inc., priority 2022, published 2026).
# Assays:
# IRAK1 = IRAK1 (Homo sapiens, UniProt P51617); assay: Adapta Universal Kinase Assay (ThermoFisher) against IRAK1; type: biochemical; details: Histone H3 (1-20) peptide substrate, 60 minutes at room temperature
# Protocol: To measure the IC50 values of the compounds herein against IRAK1, the Adapta Universal Kinase Assay (ThermoFisher) was used. Briefly, 100 nL of different concentrations of the compounds in 100% DMSO were added to each well of a 384-well plate (Corning Cat. #4512). 2.4 μL of 30 mM HEPES, 2.5 μL of 4× ATP solution (in water), and 5 μL of 2× IRAK1/Histone H3 (1-20) peptide mixture (prepared in 50 mM HEPES pH 7.5, 0.01% BRIJ-35, 10 mM MgCl2, 1 mM EGTA) were added to each well. The plate was shaken for 30 seconds and centrifuged for 1 minute at 1000×g. The plate was then incubated at room temperature for 60 minutes. 5 μL of Detection Mix was added to each well. The plate was shaken for 30 seconds and centrifuged for 1 minute at 1000×g. The plate was then incubated at room temperature for 60 minutes. The plate was subsequently read on a fluorescence plate reader, and the emissions ratio was calculated to determine the ratio of ATP to ADP. Emissions Ratio=AF647 Emission (665 nm)/Europium Emission (615 nm).
# IRAK4 = biological target: T1, IRAK4 (Homo sapiens, UniProt Q9NWZ3); assay: Z'-LYTE assay (ThermoFisher) against IRAK4; type: biochemical; details: Ser/Thr 07 substrate, 60 minutes at room temperature
# T1 sequence (Q9NWZ3 1-460): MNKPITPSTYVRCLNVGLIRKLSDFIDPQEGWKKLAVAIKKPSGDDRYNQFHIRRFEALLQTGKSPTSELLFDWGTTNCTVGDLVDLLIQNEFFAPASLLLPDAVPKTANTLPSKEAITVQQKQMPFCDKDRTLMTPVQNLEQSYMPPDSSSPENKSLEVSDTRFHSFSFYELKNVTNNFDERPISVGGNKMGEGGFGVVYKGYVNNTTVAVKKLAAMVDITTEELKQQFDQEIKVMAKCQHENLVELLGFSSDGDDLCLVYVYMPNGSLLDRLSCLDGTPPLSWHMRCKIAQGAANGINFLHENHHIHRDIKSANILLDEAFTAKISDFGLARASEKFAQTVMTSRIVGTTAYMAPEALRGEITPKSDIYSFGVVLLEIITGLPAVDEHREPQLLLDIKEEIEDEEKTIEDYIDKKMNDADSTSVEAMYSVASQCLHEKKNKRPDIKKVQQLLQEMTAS
# Protocol: To measure the IC50 values of compounds herein against IRAK4, a Z′-LYTE assay (ThermoFisher) was used. Briefly, 2.5 μL of different concentrations of the compounds in 1% DMSO were added to 2.4 μL kinase buffer (50 mM HEPES pH 7.5, 0.01% BRIJ-35, 10 mM MgCl2, 1 mM EGTA) in each well of a 384-well plate (Corning Cat. #3676). 5 μL of 2× IRAK4/Ser/Thr 07 mixture (prepared in 50 mM HEPES pH 7.5, 0.01% BRIJ-35, 10 mM MnCl2, 2 mM DTT, and 0.02% NaN3) and 2.5 μL of 4× ATP solution (4× ATP, 50 mM HEPES, pH 7.5, 0.01% BRIJ-35, 10 mM MgCl2, 1 mM EGTA) were added to each well. The plate was shaken for 30 seconds, and then incubated at room temperature for 60 minutes. 5 μL of a 1:100000 dilution of Development Reagent A was added to each well. The plate was shaken for 30 seconds and incubated for 60 minutes at room temperature. The plate was subsequently read on a fluorescence plate reader, and the emissions ratio was calculated to determine the ratio of Ser/Thr 07 phosphorylated by the reaction. Emissions Ratio=Coumarin Emission (443 nm)/Flourescein Emission (520 nm).
# IRAK1, sequence (P51617 whole entry): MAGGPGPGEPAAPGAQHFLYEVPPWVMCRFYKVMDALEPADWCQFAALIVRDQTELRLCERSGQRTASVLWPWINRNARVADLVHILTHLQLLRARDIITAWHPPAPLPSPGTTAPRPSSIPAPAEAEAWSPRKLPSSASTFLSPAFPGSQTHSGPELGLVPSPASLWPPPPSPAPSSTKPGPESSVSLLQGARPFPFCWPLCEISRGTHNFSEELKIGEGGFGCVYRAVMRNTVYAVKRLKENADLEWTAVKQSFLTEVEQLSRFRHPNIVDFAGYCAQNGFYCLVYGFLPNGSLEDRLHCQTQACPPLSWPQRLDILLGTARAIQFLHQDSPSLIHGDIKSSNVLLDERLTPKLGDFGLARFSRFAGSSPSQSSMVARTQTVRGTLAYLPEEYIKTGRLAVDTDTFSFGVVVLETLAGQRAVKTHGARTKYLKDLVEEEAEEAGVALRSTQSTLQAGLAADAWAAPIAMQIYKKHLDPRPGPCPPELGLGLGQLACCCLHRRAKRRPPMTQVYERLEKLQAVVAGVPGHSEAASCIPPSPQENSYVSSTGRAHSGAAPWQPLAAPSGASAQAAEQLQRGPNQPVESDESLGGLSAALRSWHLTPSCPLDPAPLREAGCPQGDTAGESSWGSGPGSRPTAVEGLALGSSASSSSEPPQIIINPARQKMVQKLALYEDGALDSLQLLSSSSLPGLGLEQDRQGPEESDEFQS
SMILES,IC50 (IRAK1),IC50 (IRAK4)
C=CC(=O)N1CCC[C@H](C(=O)Nc2ccc(-c3ncc(-c4cccc(-c5ccn[nH]5)n4)s3)nc2)C1 [Compound 023],6.07 nM,244 nM
"C=CC(=O)N1CCC[C@H](c2nc(-c3ccc(NC(=O)c4cccc(-c5[nH]ncc5C)n4)c(F)c3)no2)C1 [Compound 088, (S)-N-(4-(5-(1-acryloylpiperidin-3-yl)-1,2,4-oxadiazol-3-yl)-2-fluorophenyl)-6-(4-methyl-1H-pyrazol-5-yl)picolinamide]",12.7 nM,> 10000 nM
C=CC(=O)N1C[C@@H](c2nc(-c3ccc(NC(=O)c4cccc(-c5ccn[nH]5)n4)cc3)no2)C[C@@H](C(F)(F)F)C1 [Compound 078],521 nM,> 10000 nM
C=CC(=O)N1CCC[C@H](c2nc(-c3ccc(NC(=O)c4cccc(-c5cc(C#N)n(C)c5)n4)cc3)no2)C1 [Compound 087],5720 nM,> 10000 nM
"C=CC(=O)N1CC(C(F)(F)F)C[C@H](c2nc(-c3ccc(NC(=O)c4cccc(-c5ccn[nH]5)n4)nc3)no2)C1 (stereo partly drawn) [Compound 009, N-(5-(5-((3S)-1-acryloyl-5-(trifluoromethyl)piperidin-3-yl)-1,2,4-oxadiazol-3-yl)pyridin-2-yl)-6-(1H-pyrazol-5-yl)picolinamide]",3.98 nM,> 10000 nM
C=CC(=O)N1CCC[C@H](C(=O)Nc2ccc(-c3ncc(-c4cccc(-c5ccn[nH]5)n4)o3)nc2)C1 [Compound 022],5.35 nM,376 nM
"C=CC(=O)N1CCC[C@H](C(=O)Nc2ccc(-c3cnc(-c4cccc(-c5ccn[nH]5)n4)[nH]3)cc2)C1 [Compound 070, (S)-N-(4-(2-(6-(1H-pyrazol-5-yl)pyridin-2-yl)-1H-imidazol-5-yl)phenyl)-1-acryloylpiperidine-3-carboxamide]",1200 nM,3330 nM
"C=CC(=O)N1CCC[C@H](c2nc(-c3ccc(NC(=O)c4cccc(-c5[nH]ncc5C)n4)nc3)no2)C1 [Compound 006, (S)-N-(5-(5-(1-acryloylpiperidin-3-yl)-1,2,4-oxadiazol-3-yl)pyridin-2-yl)-6-(4-methyl-1H-pyrazol-5-yl)picolinamide]",8.21 nM,> 10000 nM
"C=CC(=O)N1CCC[C@H](c2nc(-c3ccc(NC(=O)c4cccc(-c5ccn[nH]5)n4)c(C(F)(F)F)c3)no2)C1 [Compound 080, (S)-N-(4-(5-(1-acryloylpiperidin-3-yl)-1,2,4-oxadiazol-3-yl)-2-(trifluoromethyl)phenyl)-6-(1H-pyrazol-5-yl)picolinamide]",8.25 nM,3620 nM
"C=CC(=O)N1CCC[C@H](c2nnc(-c3ccc(NC(=O)c4cccc(-c5ccn[nH]5)n4)nc3)o2)C1 [Compound 005, (S)-N-(5-(5-(1-acryloylpiperidin-3-yl)-1,3,4-oxadiazol-2-yl)pyridin-2-yl)-6-(1H-pyrazol-5-yl)picolinamide]",96.1 nM,9340 nM
"C=CC(=O)N1CC(c2nc(-c3ccc(NC(=O)c4cccc(-c5ccn[nH]5)n4)nc3)no2)CC(F)(F)C1 (stereo not drawn) [Compound 002, N-(5-(5-(1-acryloyl-5,5-difluoropiperidin-3-yl)-1,2,4-oxadiazol-3-yl)pyridin-2-yl)-6-(1H-pyrazol-5-yl)picolinamide]",6.42 nM,> 10000 nM
C=CC(=O)N1CCC[C@H](C(=O)Nc2ccc(-c3ncc(-c4cccc(-c5ccn[nH]5)n4)[nH]3)nc2)C1 [Compound 024],6.54 nM,474 nM
"C=CC(=O)N1CCC[C@H](c2nc(-c3ccc(NC(=O)c4cccc(-c5ccn[nH]5)n4)cn3)no2)C1 [Compound 061, (S)-N-(6-(5-(1-acryloylpiperidin-3-yl)-1,2,4-oxadiazol-3-yl)pyridin-3-yl)-6-(1H-pyrazol-5-yl)picolinamide]",84.3 nM,> 10000 nM
C=CC(=O)N1CC2(CC(c3nc(-c4ccc(NC(=O)c5cccc(-c6ccn[nH]6)n5)cc4)no3)C2)C1 [Compound 077],,> 10000 nM
C=CC(=O)N1CCC[C@H](C(=O)Nc2ccc(-c3nc(-c4cccc(-c5ccn[nH]5)n4)no3)nc2)C1 [Compound 020],2.6 nM,333 nM
C=CC(=O)N1CCC[C@H](C(=O)Nc2ccc(-c3nnc(-c4cccc(-c5ccn[nH]5)n4)o3)nc2)C1 [Compound 019],5 nM,331 nM
"C=CC(=O)N1CCC[C@H](c2nc(-c3ccc(NC(=O)c4cccc(-c5[nH]ncc5Cl)n4)cc3)no2)C1 [Compound 086, (S)-N-(4-(5-(1-acryloylpiperidin-3-yl)-1,2,4-oxadiazol-3-yl)phenyl)-6-(4-chloro-1H-pyrazol-5-yl)picolinamide]",9.16 nM,> 10000 nM
C=CC(=O)N1C[C@@H](c2nc(-c3ccc(NC(=O)c4cccc(-c5ccn[nH]5)n4)cc3)no2)CC(F)(F)C1 [Compound 082],17.6 nM,> 10000 nM
"C=CC(=O)N1CCC[C@H](c2nc(-c3ccc(NC(=O)c4cccc(-c5ccn[nH]5)n4)c(F)c3)no2)C1 [Compound 076, (S)-N-(4-(5-(1-acryloylpiperidin-3-yl)-1,2,4-oxadiazol-3-yl)-2-fluorophenyl)-6-(1H-pyrazol-5-yl)picolinamide]",16.4 nM,> 10000 nM
C=CC(=O)N1CCC[C@H](c2nc(-c3ccc(NC(=O)c4cccc(-c5ccn[nH]5)n4)cc3)no2)C1 [Compound 075],36.6 nM,> 10000 nM
"C=CC(=O)N1CC(c2nc(-c3ccc(NC(=O)c4cccc(-c5[nH]ncc5Cl)n4)nc3)no2)CC(F)(F)C1 (stereo not drawn) [Compound 008, N-(5-(5-(1-acryloyl-5,5-difluoropiperidin-3-yl)-1,2,4-oxadiazol-3-yl)pyridin-2-yl)-6-(4-chloro-1H-pyrazol-5-yl)picolinamide]",5.11 nM,> 10000 nM
"C=CC(=O)N1CCC[C@H](c2nc(-c3ccc(NC(=O)c4cccc(-c5[nH]ncc5Cl)n4)c(F)c3)no2)C1 [Compound 089, (S)-N-(4-(5-(1-acryloylpiperidin-3-yl)-1,2,4-oxadiazol-3-yl)-2-fluorophenyl)-6-(4-chloro-1H-pyrazol-5-yl)picolinamide]",21.1 nM,> 10000 nM
"C=CC(=O)N1CCC[C@H](c2nc(-c3ccc(NC(=O)c4cccc(-c5ccn[nH]5)n4)c(OC(F)(F)F)c3)no2)C1 [Compound 081, (S)-N-(4-(5-(1-acryloylpiperidin-3-yl)-1,2,4-oxadiazol-3-yl)-2-(trifluoromethoxy)phenyl)-6-(1H-pyrazol-5-yl)picolinamide]",9 nM,794 nM
C=CC(=O)N1C[C@@H](c2nc(-c3ccc(NC(=O)c4cccc(-c5ccn[nH]5)n4)nc3)no2)C[C@@H](C(F)(F)F)C1 [Compound 062],94.2 nM,> 10000 nM
C=CC(=O)N1C[C@@H](c2nc(-c3ccc(NC(=O)c4cccc(-c5ccn[nH]5)n4)cc3)no2)C[C@H](C(F)(F)F)C1 [Compound 083],209 nM,> 10000 nM
"C=CC(=O)N1CC(c2nc(-c3ccc(NC(=O)c4cccc(-c5[nH]ncc5Cl)n4)c(F)c3)no2)CC(F)(F)C1 (stereo not drawn) [Compound 092, N-(4-(5-(1-acryloyl-5,5-difluoropiperidin-3-yl)-1,2,4-oxadiazol-3-yl)-2-fluorophenyl)-6-(4-chloro-1H-pyrazol-5-yl)picolinamide]",9.93 nM,> 10000 nM
"C=CC(=O)N1C[C@@H](c2nc(-c3ccc(NC(=O)c4cccc(-c5ccn[nH]5)n4)c(F)c3)no2)CC(F)(F)C1 [Compound 090, (S)-N-(4-(5-(1-acryloyl-5,5-difluoropiperidin-3-yl)-1,2,4-oxadiazol-3-yl)-2-fluorophenyl)-6-(1H-pyrazol-5-yl)picolinamide]",6.62 nM,> 10000 nM
C=CC(=O)N1CC2(CC(c3nc(-c4ccc(NC(=O)c5cccc(-c6ccn[nH]6)n5)cc4)no3)C2)C1 [Compound 091],,4970 nM
